Measured values published in patent publication US8835467B2, “SIR2 regulation” (Albert Einstein College of Medicine of Yeshiva University, priority 2003, dated 2014).
Where “and” joins values, the source holds several entries; their conditions need not be identical. Identical values can stand only once.

Legend:
Sir2p (yeast) [1] = target: T1, Sir2p (yeast) (Saccharomyces cerevisiae, UniProt P06700); test: HPLC assay of base exchange, histone H4 substrate (Example 3); type: biochemical; settings: for % rate (base exchange) / Cpm/sample (radioactivity in NAD peak): Yeast enzyme
Af2Sir2 (archaean) [2] = target: T2, Af2Sir2 (archaean) (Archaeoglobus fulgidus, UniProt O30124); test: HPLC assay of deacetylation, histone H4 substrate (Example 3); type: biochemical; settings: Archaea enzyme
T2 sequence (O30124 1-253): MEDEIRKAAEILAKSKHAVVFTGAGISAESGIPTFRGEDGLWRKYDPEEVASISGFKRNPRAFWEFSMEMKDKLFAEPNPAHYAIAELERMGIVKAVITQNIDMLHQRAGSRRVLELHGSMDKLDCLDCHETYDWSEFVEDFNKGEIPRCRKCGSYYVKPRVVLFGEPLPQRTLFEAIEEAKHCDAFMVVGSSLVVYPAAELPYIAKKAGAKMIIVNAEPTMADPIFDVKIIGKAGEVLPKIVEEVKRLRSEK

Sir2p (yeast) [3] = target: T1, Sir2p (yeast); test: as above; type: biochemical; settings: Yeast enzyme
Af2Sir2 (archaean) [4] = target: T2, Af2Sir2 (archaean); test: biochemical
Protocol: NAD^+ in 50 μL 50 mM potassium phosphate pH 7.0. Each solution also contained a variable amount of 2-Fluoronicotinamide with concentrations of 0, 5, 10, 20, 40 and 80 mM of the compound. […] Deacetylation was assayed by integration of the peaks for AADPR and ADPR in reaction mixtures.

Af2Sir2 (archaean) [5] = target: T2, Af2Sir2 (archaean); test: HPLC assay of base exchange, histone H4 substrate (Example 3); settings: Archaea enzyme
Bacterial SIR2Af2 [6] = target: T3, Bacterial SIR2Af2 (Archaeoglobus fulgidus, UniProt O30124); test: SIR2 deacetylation assay (p53 peptide, HPLC of ADPR and 3′-O-acetyl-ADPR); type: biochemical, Archeaglobus fulgidus
T3 construct: made in house
T3 sequence (O30124 1-253): T2 sequence (O30124 1-253)
Protocol: (§1) After 2 hours, aliquots of 10 μL removed at 0, 30, 60, 90 and 120 min. Each aliquot was combined with 50 μL 50 mM ammonium acetate pH 5.0 to quench and assayed by HPLC for deacetylation products and NAD^+. The chromatograms (260 nm) were obtained using 50 mM ammonium acetate pH 5.0 as eluant on a semi-preparative Waters C-18 column (2.0 mL/min flow rate). Peaks for ADPR and 3′-O-Acetyl-ADPR were quantified by integration. The peak for NAD^+ was collected and radiation counted. […] Plots of deacetylation rate versus nicotinamide were fit to the equations described in the text.
(§2) Reactions were as above but base reactions contained 5 mM of pyrazinamide, isonicotinamide, thionicotinamide, or benzamide. Reactions were carried out (2 hours for AF2 and yeast enzymes and 3 hours for mouse enzyme) at 37° C. and quenched by addition of 80 μL 50 mM ammonium acetate pH 5.0. Product formation was quantified by HPLC. Thionicotinamide-NAD^+ was synthesized by CD38. Rates were compared with controls lacking added base.

[7] = target: T4, Mouse SIR2 enzyme (SIR2α) (Mus musculus, UniProt Q923E4); test: as above; type: biochemical
T4 construct: purchased Upstate Group
T4 sequence (Q923E4 1-737): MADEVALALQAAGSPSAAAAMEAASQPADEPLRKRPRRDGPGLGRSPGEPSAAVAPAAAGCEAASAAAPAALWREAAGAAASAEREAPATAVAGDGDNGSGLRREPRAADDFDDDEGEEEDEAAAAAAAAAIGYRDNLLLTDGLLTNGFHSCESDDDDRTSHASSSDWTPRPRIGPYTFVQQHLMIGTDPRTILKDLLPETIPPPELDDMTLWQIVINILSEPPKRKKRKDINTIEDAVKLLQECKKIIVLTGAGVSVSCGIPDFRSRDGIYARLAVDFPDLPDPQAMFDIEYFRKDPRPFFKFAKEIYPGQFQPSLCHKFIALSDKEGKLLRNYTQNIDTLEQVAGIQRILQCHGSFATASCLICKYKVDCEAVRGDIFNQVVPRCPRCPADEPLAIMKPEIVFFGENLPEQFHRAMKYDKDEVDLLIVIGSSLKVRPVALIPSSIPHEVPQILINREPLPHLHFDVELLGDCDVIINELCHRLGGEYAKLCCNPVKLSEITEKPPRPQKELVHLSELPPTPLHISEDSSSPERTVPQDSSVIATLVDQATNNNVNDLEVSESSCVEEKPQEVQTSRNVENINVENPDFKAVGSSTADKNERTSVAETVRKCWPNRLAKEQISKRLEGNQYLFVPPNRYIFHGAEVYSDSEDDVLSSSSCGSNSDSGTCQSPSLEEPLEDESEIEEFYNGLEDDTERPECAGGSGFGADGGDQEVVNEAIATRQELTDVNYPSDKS
Protocol: (§3) After 2 hours, aliquots of 10 μL removed at 0, 30, 60, 90 and 120 min. Each aliquot was combined with 50 μL 50 mM ammonium acetate pH 5.0 to quench and assayed by HPLC for deacetylation products and NAD^+. The chromatograms (260 nm) were obtained using 50 mM ammonium acetate pH 5.0 as eluant on a semi-preparative Waters C-18 column (2.0 mL/min flow rate). Peaks for ADPR and 3′-O-Acetyl-ADPR were quantified by integration. The peak for NAD^+ was collected and radiation counted.
as §2, with “Thionicotinamide-NAD^+ was synthesized by CD38.” left out

Yeast SIR2p [8] = target: T5, Yeast SIR2p (Saccharomyces cerevisiae, UniProt P06700); test: as above; type: biochemical
T5 construct: made in house
Protocol: as §3
as §2, with “Thionicotinamide-NAD^+ was synthesized by CD38.” left out

Bacterial SIR2Af2 [9] = target: T3, Bacterial SIR2Af2; test: SIR2 nicotinamide base-exchange assay (p53 peptide, HPLC/14C); type: biochemical, Archeaglobus fulgidus; parameters: kcat (exchange): dose or concentration left out as unconfirmed
Protocol: as §1

[10] = target: T4, Mouse SIR2 enzyme (SIR2α); test: as above; type: biochemical; parameters: kcat (exchange): dose or concentration left out as unconfirmed
Protocol: as §3

Yeast SIR2p [11] = target: T5, Yeast SIR2p; test: as above; type: biochemical; parameters: kcat (exchange): dose or concentration left out as unconfirmed
Protocol: as §3

Yeast Sir2 = Yeast Sir2 (Saccharomyces cerevisiae, UniProt P06700); test: Sir2 catalyzed deacetylation of H4 N-terminal peptide; type: biochemical; settings: Ki, apparent nicotinamide inhibition constant (deacetylation)
Protocol: Measurements were performed by methods described in Sauve and Schramm (2003) with the H4N-terminal peptide (AGG(AcK)GG(AcK)GMG(AcK)VGA(AcK)RHSC) (Imai et al., 2000) as substrate.

[12] = tested on: Sir2-dependent transcriptional silencing at the silent mating-type loci (HMR, HML); test: Silent mating-type locus reporter silencing, spot assay; type: cell-based, yeast
Protocol: The photographs were taken after 2 to 3 days incubation. […] Isogenic strains UCC4562 (DOT1) and UCC4554 (dot1Δ) (Singer et al., 1998) are shown in each panel (top and bottom rows, respectively). […] The phenotype of strain CCFY10028 (top row) is compared to an isogenic sir2 derivative (bottom row). The sir2 deletion strain was generated by PCR-mediated gene disruption using a Nat-MX selectable marker (Tong et al., 2004).
The deletion strains were generated by PCR-mediated gene disruption using a Nat-MX selectable marker (Tong et al., 2004). Silencing at TEL-VR::URA3 is reported by survival on FOA-containing media and at HMR::TRP1 is detected by reduced growth on media lacking tryptophan.
The effect of isonicotinamide on Sir2 activity at the silent mating-type loci was measured in an HMR: TRP1 strain by growth on medium lacking tryptophan (FIG. 8b). Silencing of TRP1 decreases growth on Trp^− media.

Yeast Sir2, sequence (P06700 whole entry): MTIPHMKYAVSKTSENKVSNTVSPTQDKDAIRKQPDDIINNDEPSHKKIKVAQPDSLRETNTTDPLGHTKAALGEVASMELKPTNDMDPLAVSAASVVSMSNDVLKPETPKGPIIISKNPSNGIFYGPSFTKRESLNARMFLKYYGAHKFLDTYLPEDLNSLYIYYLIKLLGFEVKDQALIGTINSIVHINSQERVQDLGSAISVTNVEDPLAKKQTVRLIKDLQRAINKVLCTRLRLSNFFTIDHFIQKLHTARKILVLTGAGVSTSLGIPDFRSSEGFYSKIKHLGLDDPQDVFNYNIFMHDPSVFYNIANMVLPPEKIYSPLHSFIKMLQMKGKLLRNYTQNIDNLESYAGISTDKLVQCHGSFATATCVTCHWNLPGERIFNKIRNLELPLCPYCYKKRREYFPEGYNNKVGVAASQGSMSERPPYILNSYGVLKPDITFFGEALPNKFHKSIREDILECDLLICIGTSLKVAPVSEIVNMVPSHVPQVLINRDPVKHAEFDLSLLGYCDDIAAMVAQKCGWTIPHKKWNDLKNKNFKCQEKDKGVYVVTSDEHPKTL
T1 sequence (P06700 whole entry): as above
T5 sequence (P06700 whole entry): as above

NC(=O)c1cccnc1F
Ki (Sir2p (yeast) [1]): 20000 µM | % rate (base exchange) (Sir2p (yeast) [1]; 5 mM): 76% | Cpm/sample (radioactivity in NAD peak) (Sir2p (yeast) [1]; 5 mM): 24,500 Cpm/sample | % rate (base exchange) (Sir2p (yeast) [1]; 10 mM): 58% | Cpm/sample (radioactivity in NAD peak) (Sir2p (yeast) [1]; 10 mM): 18,800 Cpm/sample | % rate (base exchange) (Sir2p (yeast) [1]; 20 mM): 47% | Cpm/sample (radioactivity in NAD peak) (Sir2p (yeast) [1]; 20 mM): 15,200 Cpm/sample | % rate (base exchange) (Sir2p (yeast) [1]; 40 mM): 36% | Cpm/sample (radioactivity in NAD peak) (Sir2p (yeast) [1]; 40 mM): 11,600 Cpm/sample | % rate (base exchange) (Sir2p (yeast) [1]; 80 mM): 28% | Cpm/sample (radioactivity in NAD peak) (Sir2p (yeast) [1]; 80 mM): 9,000 Cpm/sample | % rate (deacetylation) (Af2Sir2 (archaean) [2]; 5 mM): 100% | % rate (deacetylation) (Af2Sir2 (archaean) [2]; 10 mM): 100% | % rate (deacetylation) (Af2Sir2 (archaean) [2]; 20 mM): 100% | % rate (deacetylation) (Af2Sir2 (archaean) [2]; 40 mM): 100% | % rate (deacetylation) (Af2Sir2 (archaean) [2]; 80 mM): 100% | % rate (deacetylation) (Sir2p (yeast) [3]; 5 mM): 100% | % rate (deacetylation) (Sir2p (yeast) [3]; 10 mM): 97% | % rate (deacetylation) (Sir2p (yeast) [3]; 20 mM): 100% | % rate (deacetylation) (Sir2p (yeast) [3]; 40 mM): 95% | % rate (deacetylation) (Sir2p (yeast) [3]; 80 mM): 95% | Ki (Af2Sir2 (archaean) [4]): 43000 µM | % rate (base exchange) (Af2Sir2 (archaean) [5]; 5 mM): 91% | Cpm/sample (radioactivity in NAD peak) (Af2Sir2 (archaean) [5]; 5 mM): 18,200 Cpm/sample | % rate (base exchange) (Af2Sir2 (archaean) [5]; 10 mM): 80% | Cpm/sample (radioactivity in NAD peak) (Af2Sir2 (archaean) [5]; 10 mM): 16,100 Cpm/sample | % rate (base exchange) (Af2Sir2 (archaean) [5]; 20 mM): 73% | Cpm/sample (radioactivity in NAD peak) (Af2Sir2 (archaean) [5]; 20 mM): 14,600 Cpm/sample | % rate (base exchange) (Af2Sir2 (archaean) [5]; 40 mM): 50% | Cpm/sample (radioactivity in NAD peak) (Af2Sir2 (archaean) [5]; 40 mM): 10,300 Cpm/sample | % rate (base exchange) (Af2Sir2 (archaean) [5]; 80 mM): 35% | Cpm/sample (radioactivity in NAD peak) (Af2Sir2 (archaean) [5]; 80 mM): 7,000 Cpm/sample

NC(=S)c1cccnc1 [Thionicotinamide]
inhibition at 5000 µM (Bacterial SIR2Af2 [6]): 4% | inhibition at 5000 µM [7]: 16% | inhibition at 5000 µM (Yeast SIR2p [8]): 15%

NC(=O)c1cccnc1 [nicotinamide]
Ki (Bacterial SIR2Af2 [9]): > 8000 µM | kcat (exchange) (Bacterial SIR2Af2 [9]; bacterial enzyme, from nicotinamide saturation curves, pH 7.8): 0.00583 ± 0.00067 s⁻¹ | Ki [10]: > 8000 µM | kcat (exchange) ([10]; mouse enzyme, from nicotinamide saturation curves, pH 7.8): 0.05 ± 0.0033 s⁻¹ | Ki (Yeast SIR2p [11]): > 8000 µM | kcat (exchange) (Yeast SIR2p [11]; yeast enzyme, from nicotinamide saturation curves, pH 7.8): 0.0967 ± 0.0067 s⁻¹ | Ki (Bacterial SIR2Af2 [6]): 26 ± 4 µM | intermediate returned to acetylated protein (Bacterial SIR2Af2 [6]; bacterial SIR2, saturation of the nicotinamide site): 21% | reduction of deacetylation rate by nicotinamide (Bacterial SIR2Af2 [6]; bacterial enzyme, high (>10 Ki) nicotinamide): 21% | kinh (deacetylation), residual deacetylation rate (Bacterial SIR2Af2 [6]; bacterial enzyme, in the presence of 2 mM nicotinamide): 1.4 ± 0.2 min⁻¹ | Ki [7]: 160 µM | intermediate returned to acetylated protein ([7]; mouse SIR2, saturation of the nicotinamide site): 95% | inhibition of deacetylation by nicotinamide ([7]; mouse enzyme, high nicotinamide concentrations): > 95% and 95% | kinh (deacetylation), residual deacetylation rate ([7]; mouse enzyme, in the presence of 2 mM nicotinamide): 0.014 ± 0.002 min⁻¹ | Ki (Yeast SIR2p [8]): 120 ± 25 µM | intermediate returned to acetylated protein (Yeast SIR2p [8]; yeast SIR2, saturation of the nicotinamide site): 65% | reduction of deacetylation rate by nicotinamide (Yeast SIR2p [8]; yeast enzyme, high (millimolar) nicotinamide): 65% | kinh (deacetylation), residual deacetylation rate (Yeast SIR2p [8]; yeast enzyme, in the presence of 2 mM nicotinamide): 0.60 ± 0.08 min⁻¹ | Ki (Yeast Sir2; 0 mM isonicotinamide): 100 µM | Ki (Yeast Sir2; 60 mM isonicotinamide): 180 µM | Ki (Yeast Sir2; 100 mM isonicotinamide): 330 µM | growth phenotype of isogenic sir2Δ strain ([12]; HMR::TRP1, Trp− medium): Neither compound altered the growth phenotype | growth on Trp− medium ([12]; HMR::TRP1 strain, 5 mM nicotinamide): increased growth

NC(=O)c1ccccc1 [Benzamide]
inhibition at 5000 µM (Bacterial SIR2Af2 [6]): 5% | inhibition at 5000 µM [7]: 44% | inhibition at 5000 µM (Yeast SIR2p [8]): 0%

NC(=O)c1cnccn1 [Pyrazinamide]
inhibition at 5000 µM (Bacterial SIR2Af2 [6]): 4% | inhibition at 5000 µM [7]: 1% | inhibition at 5000 µM (Yeast SIR2p [8]): 1%
